The series can be described thus: method code SF-AS, from PMID: 43458.
The term logP denotes the decadic logarithm of the partition coefficient of the neutral form, usually between octanol and water. Low values mean a more hydrophilic compound, high ones a more lipophilic compound. Consider `CCCCCCCCOC(=O)c1cc(O)c(O)c(O)c1`, for which the logP was found to be 3.66.

The molecule `CCCOC(=O)c1cc(O)c(O)c(O)c1` returned a logP of 1.8.

Molecule `CC(C)COC(=O)c1cc(O)c(O)c(O)c1` returned a logP of 2.46.

The molecule `CCOC(=O)c1cc(O)c(O)c(O)c1` had a logP of 1.3.

With `COC(=O)c1cc(O)c(O)c(O)c1`, the logP was 0.86.

For `CCCCOC(=O)c1cc(O)c(O)c(O)c1`, the logP was determined as 2.41.
